What was measured:
[1] = test system: TGF-β-stimulated SMAD3 phosphorylation in BEAS-2B cells; assay: Cellular ALK5 potency assay, inhibition of TGF-β stimulated pSMAD3 formation in BEAS-2B cells; type: cell-based; settings: Homo sapiens; inhibition of TGF-β stimulated pSMAD3 formation, BEAS-2B cells; read-out: BEAS2B pIC50 (converted)
Summary of the method: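 BEAS-2B human lung epithelial cells, seeded overnight, were pre-treated with compound in HBSS/25 mM HEPES/1% BSA for 1 h at 37 °C, then stimulated with TGF-β (final 10 ng/mL) for 30 min. Lysates were assayed for pSMAD3 by AlphaLISA; pIC50 came from dose-dependent signal change versus TGF-β-stimulated untreated cells.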

[2] = biological target: T1, recombinant human ALK5 (TGF-βR1) protein (Homo sapiens, UniProt P36897); assay: Biochemical ALK5 (TGF-βR1) assay to measure pKi (LANCE Ultra ULight kinase assay); settings: apparent pKi from pIC50 by Cheng-Prusoff, read-out: ALK5 pKi (converted)
T1 construct: purchased Life Technologies PR9075A
T1 sequence (P36897 34-503): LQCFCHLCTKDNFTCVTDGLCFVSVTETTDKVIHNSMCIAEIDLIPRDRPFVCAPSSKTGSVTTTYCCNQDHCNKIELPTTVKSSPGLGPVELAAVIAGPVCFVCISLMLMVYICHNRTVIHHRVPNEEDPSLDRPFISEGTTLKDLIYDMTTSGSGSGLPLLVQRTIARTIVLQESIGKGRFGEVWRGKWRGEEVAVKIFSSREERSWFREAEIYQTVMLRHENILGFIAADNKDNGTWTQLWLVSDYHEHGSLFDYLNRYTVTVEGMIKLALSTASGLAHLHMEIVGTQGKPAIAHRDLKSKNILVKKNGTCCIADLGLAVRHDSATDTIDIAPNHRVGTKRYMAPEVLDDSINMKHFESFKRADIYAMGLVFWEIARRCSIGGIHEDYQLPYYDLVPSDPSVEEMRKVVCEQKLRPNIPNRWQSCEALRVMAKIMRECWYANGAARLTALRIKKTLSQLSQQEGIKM
Summary of the method: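 Dose range 10 μM–25 pM; enzyme + compound 60 min RT; ATP added (5× stock 125 μM, 2 mM DTT); 60 min 37 °C; stop with EDTA + Eu anti-phospho-Topo IIα Thr1342 Ab; TR-FRET ex 320/340, em 665 nm. 4-param pIC50 → pKi (Cheng-Prusoff).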

SMILES	IC50 [1]	Ki [2]
Cc1cccc(-c2n[nH]cc2-c2ccc3ncc(CCC(=O)O)cc3n2)n1 [Compound 63, 3-[6-[3-(6-methyl-2-pyridyl)-1H-pyrazol-4-yl]-1,5-naphthyridin-3-yl]propanoic acid]	1580 to 10000 nM	3.98 to 31.6 nM
CNCCn1cc(-c2cnc3ccc(-c4c(-c5cccc(C)n5)nn5c4CNCC5)nc3c2)cn1 [Compound 64, N-methyl-2-[4-[6-[2-(6-methyl-2-pyridyl)-4,5,6,7-tetrahydropyrazolo[1,5-a]pyrazin-3-yl]-1,5-naphthyridin-3-yl]pyrazol-1-yl]ethanamine]	200 to 1260 nM	0.0398 to 0.316 nM
Cc1cccc(-c2n[nH]cc2-c2ccc3ncc(N4CCCN(Cc5ccccc5)CC4)cc3n2)n1 [Compound 65, 7-(4-benzyl-1,4-diazepan-1-yl)-2-[3-(6-methyl-2-pyridyl)-1H-pyrazol-4-yl]-1,5-naphthyridine]	200 to 1260 nM	0.0398 to 0.316 nM
Cc1cccc(-c2n[nH]cc2-c2ccc3ncc(N4CCNC(CO)C4)cc3n2)n1 (stereo not shown) [Compound 66, [4-[6-[3-(6-methyl-2-pyridyl)-1H-pyrazol-4-yl]-1,5-naphthyridin-3-yl]piperazin-2-yl]methanol]	25.1 to 158 nM	0.0398 to 0.316 nM
Cc1cccc(-c2n[nH]cc2-c2ccc3ncc(-c4nc5n(n4)CCNC5)cc3n2)n1 [Compound 67, 2-[3-(6-methyl-2-pyridyl)-1H-pyrazol-4-yl]-7-(5,6,7,8-tetrahydro-[1,2,4]triazolo[1,5-a]pyrazin-2-yl)-1,5-naphthyridine]	25.1 to 158 nM	0.0398 to 0.316 nM
Cc1cccc(-c2[nH]cnc2-c2ccc3ncc(N4CC(CN)C4)cc3c2)n1 [Compound 68, [1-[6-[5-(6-methyl-2-pyridyl)-1H-imidazol-4-yl]-3-quinolyl]azetidin-3-yl]methanamine]	< 20 nM	0.0398 to 0.316 nM
Cc1cccc(-c2n[nH]cc2-c2ccc3ncc(-c4cnc(O)nc4)cc3n2)n1 [Compound 69, 5-[6-[3-(6-methyl-2-pyridyl)-1H-pyrazol-4-yl]-1,5-naphthyridin-3-yl]pyrimidin-2-ol]	1580 to 10000 nM	0.0398 to 0.316 nM
Cc1cccc(-c2n[nH]cc2-c2ccc3ncc(-c4cn(C)nn4)cc3n2)n1 [Compound 71, 2-[3-(6-methyl-2-pyridyl)-1H-pyrazol-4-yl]-7-(1-methyltriazol-4-yl)-1,5-naphthyridine]	25.1 to 158 nM	< 0.0316 nM
Cc1cccc(-c2n[nH]cc2-c2ccc3ncc(-c4ncco4)cc3n2)n1 [Compound 72, 2-[6-[3-(6-methyl-2-pyridyl)-1H-pyrazol-4-yl]-1,5-naphthyridin-3-yl]oxazole]	25.1 to 158 nM	0.0398 to 0.316 nM
Cc1cccc(-c2n[nH]cc2-c2ccc3ncc(N4CCNCC4)cc3n2)n1 [Compound 73, 2-[3-(6-methyl-2-pyridyl)-1H-pyrazol-4-yl]-7-piperazin-1-yl-1,5-naphthyridine]	< 20 nM	< 0.0316 nM
Cc1cccc(-c2n[nH]cc2-c2ccc3ncc(N4CCN5CCCC5C4)cc3n2)n1 (stereo not shown) [Compound 74, 7-(3,4,6,7,8,8a-hexahydro-1H-pyrrolo[1,2-a]pyrazin-2-yl)-2-[3-(6-methyl-2-pyridyl)-1H-pyrazol-4-yl]-1,5-naphthyridine]	25.1 to 158 nM	< 0.0316 nM
Cc1cccc(-c2n[nH]cc2-c2ccc3ncc(-c4cn5c(n4)CNCC5)cc3n2)n1 [Compound 75, 2-(3-(6-Methylpyridin-2-yl)-1H-pyrazol-4-yl)-7-(5,6,7,8-tetrahydroimidazo[1,2-a]pyrazin-2-yl)-1,5-naphthyridine]	25.1 to 158 nM	< 0.0316 nM
CCOC(=O)Cn1cc(-c2cnc3ccc(-c4c[nH]nc4-c4cccc(C)n4)nc3c2)nn1 [Compound 76, ethyl 2-[4-[6-[3-(6-methyl-2-pyridyl)-1H-pyrazol-4-yl]-1,5-naphthyridin-3-yl]triazol-1-yl]acetate]	25.1 to 158 nM	0.0398 to 0.316 nM
Cc1cccc(-c2[nH]cnc2-c2ccc3ncc(-c4cnc5c(c4)CNCC5)cc3c2)n1 [Compound 77, 3-[6-[5-(6-methyl-2-pyridyl)-1H-imidazol-4-yl]-3-quinolyl]-5,6,7,8-tetrahydro-1,6-naphthyridine]	25.1 to 158 nM	0.0398 to 0.316 nM
Cc1cccc(-c2n[nH]cc2-c2ccc3ncc(N4CCOCC4)cc3n2)n1 [Compound 78, 4-[6-[3-(6-methyl-2-pyridyl)-1H-pyrazol-4-yl]-1,5-naphthyridin-3-yl]morpholine]	< 20 nM	< 0.0316 nM
CNCCn1cc(-c2cnc3ccc(-c4c(-c5ccc(F)c(C)n5)nc5ccccn45)cc3c2)cn1 [Compound 79, 2-[4-[6-[2-(5-fluoro-6-methyl-2-pyridyl)imidazo[1,2-a]pyridin-3-yl]-3-quinolyl]pyrazol-1-yl]-N-methyl-ethanamine]	25.1 to 158 nM	0.0398 to 0.316 nM
Cc1cccc(-c2n[nH]cc2-c2ccc3ncc(-c4cccs4)cc3n2)n1 [Compound 80, 2-[3-(6-methyl-2-pyridyl)-1H-pyrazol-4-yl]-7-(2-thienyl)-1,5-naphthyridine]	25.1 to 158 nM	0.0398 to 0.316 nM
Cc1cccc(-c2[nH]cnc2-c2ccc3ncc(C4=CC[C@H](N)CC4)cc3c2)n1 [Compound 81, (1R)-4-[6-[5-(6-methyl-2-pyridyl)-1H-imidazol-4-yl]-3-quinolyl]cyclohex-3-en-1-amine]	< 20 nM	< 0.0316 nM
Cc1cccc(-c2n[nH]cc2-c2ccc3ncc(N4CCC(N5CCN(C)CC5)CC4)cc3c2)n1 [Compound 82, 3-(4-(4-Methylpiperazin-1-yl)piperidin-1-yl)-6-(3-(6-methylpyridin-2-yl)-1H-pyrazol-4-yl)quinoline]	25.1 to 158 nM	0.0398 to 0.316 nM
Cc1cccc(-c2n[nH]cc2-c2ccc3ncc(-c4cc5n(n4)CCNC5)cc3n2)n1 [Compound 83, 2-[3-(6-methyl-2-pyridyl)-1H-pyrazol-4-yl]-7-(4,5,6,7-tetrahydropyrazolo[1,5-a]pyrazin-2-yl)-1,5-naphthyridine]	< 20 nM	< 0.0316 nM
Cc1nc(-c2nc3ccccn3c2-c2ccc3ncc(N4CCCNCC4)cc3n2)ccc1F [Compound 84, 7-(1,4-diazepan-1-yl)-2-[2-(5-fluoro-6-methyl-2-pyridyl)imidazo[1,2-a]pyridin-3-yl]-1,5-naphthyridine]	25.1 to 158 nM	0.0398 to 0.316 nM
Cc1cccc(-c2[nH]ncc2-c2ccc3ncc(C(=O)N(C)C)cc3n2)n1 [Compound 85, N,N-dimethyl-6-[5-(6-methyl-2-pyridyl)-1H-pyrazol-4-yl]-1,5-naphthyridine-3-carboxamide]	200 to 1260 nM	3.98 to 31.6 nM
Cc1cccc(-c2nnn(C)c2-c2ccc3ncc(N4CCNCC4)cc3c2)n1 [Compound 86, 6-[3-methyl-5-(6-methyl-2-pyridyl)triazol-4-yl]-3-piperazin-1-yl-quinoline]	25.1 to 158 nM	0.398 to 3.16 nM
COc1[nH]nc(-c2cccc(C)n2)c1-c1ccc2ncc(NCCN3CCOCC3)cc2n1 [Compound 87, 6-[5-methoxy-3-(6-methyl-2-pyridyl)-1H-pyrazol-4-yl]-N-(2-morpholinoethyl)-1,5-naphthyridin-3-amine]	200 to 1260 nM	0.398 to 3.16 nM
Cc1cccc(-c2n[nH]cc2-c2ccc3ncc(C4=CCCC4)cc3n2)n1 [Compound 88, 7-(cyclopenten-1-yl)-2-[3-(6-methyl-2-pyridyl)-1H-pyrazol-4-yl]-1,5-naphthyridine]	< 20 nM	< 0.0316 nM
Cc1nc(-c2nc3ccccn3c2-c2ccc3ncc(-c4cnn5c4CNCC5)cc3n2)ccc1F [Compound 89, 2-[2-(5-fluoro-6-methyl-2-pyridyl)imidazo[1,2-a]pyridin-3-yl]-7-(4,5,6,7-tetrahydropyrazolo[1,5-a]pyrazin-3-yl)-1,5-naphthyridine]	25.1 to 158 nM	0.0398 to 0.316 nM
Cc1cccc(-c2n[nH]cc2-c2ccc3ncc(NCC(=O)N4CCOCC4)cc3n2)n1 [Compound 90, 2-[[6-[3-(6-methyl-2-pyridyl)-1H-pyrazol-4-yl]-1,5-naphthyridin-3-yl]amino]-1-morpholino-ethanone]	25.1 to 158 nM	0.398 to 3.16 nM
Cc1nc(-c2[nH]cnc2-c2ccc3ncc(-c4cn5c(n4)CNCC5)cc3n2)ccc1F [Compound 91, 2-[5-(5-fluoro-6-methyl-2-pyridyl)-1H-imidazol-4-yl]-7-(5,6,7,8-tetrahydroimidazo[1,2-a]pyrazin-2-yl)-1,5-naphthyridine]	25.1 to 158 nM	0.0398 to 0.316 nM
CCc1cccc(-c2n[nH]cc2-c2ccc3ncc(-c4ccn(CCNC)n4)cc3n2)n1 [Compound 92, 2-(3-(6-(3-(6-ethylpyridin-2-yl)-1H-pyrazol-4-yl)-1,5-naphthyridin-3-yl)-1H-pyrazol-1-yl)-N-methylethan-1-amine]	25.1 to 158 nM	0.0398 to 0.316 nM
